# Reference: US20110098359A1, “Compositions and Methods for Treatment of Glaucoma” (Stellenbosch University, priority 2007, published 2011)
# How the values were obtained:
# [1] = Permeability experiments in flow-through diffusion cells across rabbit corneas; assay type: in vitro ADME; conditions: for steady-state flux values: frozen/thawed rabbit cornea, 20° C.
# Description: (§1) Harvested donor comeas, which were deemed unsuitable for transplantation because of infections such as hepatitis B and human immunodeficiency virus (HIV), were obtained from The Eye Bank Foundation of South Africa Observatory from 6 patients (mean age±SD, 35±12 years; range, 24-65 years). In addition, rabbit corneas were obtained from 6 freshly slaughtered rabbits (Country Lane Nursery Farm, Kraaifontein, Cape Town, South Africa). Excised corneas were immediately placed in McCarey-Kaufman solution and transported to a laboratory within 6 hours. The McCarey-Kaufman solution consisted of a stock solution of Medium 199 (Sigma Chemical Company, St. Louis, Mo., U.S.A.) to which sodium bicarbonate, as well as 25 mM of HEPES and 5% dextran, was added before using the solution for the transport of corneal specimens. On arrival in the laboratory, the corneas were hemisected. One half was used immediately, and the other half was snap-frozen in liquid nitrogen and stored at −85° C. for no longer than 6 months before use. At least one piece of corneal tissue from each specimen was placed in formalin and retained for histologic examination.
# (§2) Before each permeability experiment, tissue specimens were thawed at room temperature in phosphate buffered saline (PBS, pH 7.4). […]
# (§3) Following equilibration, the PBS was removed from the donor compartment and replaced with 1.0 mL of PBS, containing 1 mg/mL (0.1%) paracetamol in PBS at pH 7.4 (w/v) or else 1 mg/mL (0.1%) paracetamol in a commercially available artificial tear gel i.e. Teargel® liquid gel (Restan Laboratories, Bryanston, South Africa). […] Samples were analyzed at the Division of Pharmacology, Faculty of Health Sciences, Stellenbosch University by HPLC with UV detection. The collected fractions were analyzed directly after completion of the respective experiment for their paracetamol content.
# (§4) Flux (J) values across membranes were calculated by means of the relationship
# (§5) where Q indicates quantity of substance crossing membrane (in ng); A, membrane area exposed (in cm^2); and t, time of exposure (in minutes). […]
# [2] = Corneal penetration experiments (general statement); assay type: in vitro ADME; conditions: more than 2000 corneal penetration experiments
# Experimental: An ophthalmic solution was made up as follows: 1 mg/ml (0.1%) solution of paracetamol in phosphate buffered saline (pH=7.4) was used for half of the experiments and 1 mg/ml (0.1%) solution of paracetamol in phosphate […]. […] These tests were conducted in the following manner.
# [3] = Permeability experiments in flow-through diffusion cells across human corneas; assay type: in vitro ADME; conditions: for steady-state flux values: frozen/thawed human cornea, 20° C.
# Description: as §1, §2, §3, §4, §5
# [4] = Initial trials: oral paracetamol in patients with glaucoma, intra-ocular pressure reduction; assay type: in vivo, human; conditions: 1000 mg orally 4 to 6 hourly, after 24 to 48 hours
# Experimental: In initial trials, 1000 mg of paracetamol was administered orally 4 to 6 hourly to several patients with glaucoma. In all cases the intra-ocular pressure reduction was in the order of 30% after 24 to 48 hours. This compares well with the pressure lowering effect of currently available commercial preparations.
# [5] = 0.1% paracetamol in Teargel (TG)
structure (smiles),measurement,setting,value
CC(=O)Nc1ccc(O)cc1 [paracetamol],steady-state flux values,[1]; 0.1% paracetamol in PBS pH 7.4,774±30 ng·cm^−2·min^−1
same,steady-state flux values,[1]; [5],860±39 ng·cm^−2·min^−1
same,effect of Teargel on the diffusion rate of paracetamol,"[1]; across rabbit corneas, Teargel vs PBS, 0.1%",increase the diffusion rate
same,corneal penetration,[2],does penetrate the cornea well
same,steady-state flux values,[3]; 0.1% paracetamol in PBS pH 7.4,870±76 ng·cm^−2·min^−1
same,steady-state flux values,[3]; [5],860±33 ng·cm^−2·min^−1
same,effect of Teargel as a soluent on the diffusion rate of paracetamol,"[3]; across human corneas, Teargel vs PBS, 0.1%",did not affect the diffusion rate
same,intra-ocular pressure reduction,[4],~30%
